From patent US10722530B2, “Methods of diagnosing and treating cancer” (CASE WESTERN RESERVE UNIVERSITY, priority 2016, dated 2020)

Columns and labels:
[1] = test system: HEC1A endometrial cancer cells; assay: Colony survival assay, shSCR and shUDG cells; type: cell-based, human
Protocol: UDG knockdown was performed via shRNA transduction with validated clone from Sigma-Aldrich. The ID of UDG shRNA clone is NM_003362.2-656s21c1. A non-targeted scramble control shRNA clone (Sigma-Aldrich) was also used. Transfection of shRNA clones was performed according to manufacturer's specifications from Lipofectamine 2000 (Invitrogen). Lentiviral particles were produced via HEK293 cells, and targeted cells were infected and selected with puromycin. The stable UDG knockdown levels were verified for q-PCR and western blot analysis.
DLD1 (200 cells/well) or HEC1A (300 cells/well) cells were plated in 6-well culture dishes and allowed to adhere for 16 h. Cells were treated with drug for 24 h, gently washed twice with 1×PBS, and incubated with fresh media for at least 10 days to allow individual colonies to form. Colonies were stained with methylene blue, and only colonies containing ≥50 cells were counted. The percentage of survival was determined relative to untreated control averaged over 3 independent experiments.

[2] = test system: cleaved PARP in HCT116 p53 WT cells; assay: Western blot of apoptotic proteins; type: cell-based, human; conditions: shSCR and shUDG, 25 nM 5-FdU 24 h
Protocol: (§1) Western blots were performed as previously described Yan et al., Clinical Cancer Research. 2007; 13(5):1532-9. Twenty microgram of protein was loaded on SDS-polyacrylamide gel. The following antibodies were used to detect proteins on the membrane: α-Tubulin (Calbiochem); GAPDH (Santa Cruz Biotechnology); UDG (FL-313) (Santa Cruz Biotechnology); cleaved PARP (Asp214)(19F4) (Cell Signaling); cleaved caspase 3 (Cell Signaling); p53 (FL-393) (Santa Cruz Biotechnology); and p21 (Santa Cruz Biotechnology). For quantitative RT-PCR, total RNA from cells was extracted by using RNeasy Plus Mini Kit (Qiagen). cDNA synthesis was performed by using SuperScript III First Strand Kit (Life Technologies).

[3] = test system: cleaved PARP or activated caspase 3 in HCT116 p53 KO cells; assay: Western blot of apoptotic proteins; type: cell-based, human
Protocol: as §1

[4] = test system: cleaved PARP in DLD1 cells; assay: Western blot of cleaved PARP; type: cell-based, human; conditions: DLD1, 50 nM 5-FdU
Protocol: (§2) Western blots were performed as described in Yan et al. (Clin Cancer Res. (2007) 13:1532-39). Antibodies used were as follows: Anti-UDG (FL-313) (Santa Cruz Biotechnology), anti-Cleaved PARP (Asp214)(19F4) (Cell Signaling), and anti-α-Tubulin (Calbiochem).

[5] = test system: cleaved PARP in HEC1A cells; assay: Western blot of cleaved PARP; type: cell-based, human; conditions: HEC1A, 50 nM 5-FdU
Protocol: as §2

DLD1 cells = assay: Cell cycle and BrdU/PI labeling analysis; type: cell-based, human; conditions: for cell cycle progression (PI staining): 100 nM 5-FdU; for cell cycle profile (BrdU and PI co-staining): 100 nM 5-FdU 24 h
Protocol: For cell cycle analysis, DLD1 cells were synchronize by serum starvation for 48 h and released in fresh media for 16 h. The cells were then treated with 100 nM 5-FdU for 4, 8, 12, 20, 24, 28, 32, 36, 48, 72, and 96 h. At each time point, cells were harvested and fixed with methanol. Fixed cells were incubated with DNase-free RNaseA (Roche) and stained with 50 μg/mL PI solution (Sigma-Aldrich). For BrdU/PI labeling analysis, cells were treated with 100 nM 5-FdU for 24 h and pulsed with 10 μM BrdU (BD Biosciences Pharmingen, BrdU Flow Kit) for 45 minutes before collecting cells. According to manufacturer's instructions from BD Biosciences Pharmingen, cells were fixed, treated with DNAse for 1 h at 37° C., stained with FITC anti-BrdU for 20 minutes, and incubated with PI staining solution (50 μg/mL PI, 10 mM Tris-HCl pH 7.5, 5 mM MgCl2, 10 μg/mL DNase-free RNaseA) for 30 minutes at 37° C. For both assays, cells were analyzed on a BD LSRII instrument.

A375 = assay: Clonogenic survival assay; type: cell-based; conditions: Homo sapiens, A-375; A375 (p53 wt), 24 h treatment, colonies after at least 10 days
Protocol: (§3) Cancer cells (200-300 cells/well) were seeded in 6-well culture dishes and allowed to adhere overnight. For 5-FdU, cells were treated for 24 h, then gently washed with PBS, and incubated with fresh media for at least 10 days to allow individual colonies to form. […] After 10-18 days, the plates were stained with methylene blue. Colonies containing ≥50 cells were counted. The percentage of survival was determined relative to untreated control averaged over 3 independent experiments.

p53 WT cancer lines = assay: Clonogenic survival assay, panel of p53 WT lines
Text: p53 or UDG knockdown was achieved via shRNA transduction. Lentiviral vectors LV-THM-shp53 (which also expresses a GFP reporter) or LV-Bleo-shp53 to perform p53 KD in WT HCT116 cells were obtained from Case Western Reserve University, Cleveland, Ohio Lentiviral vector targeting GFP (sh-GFP) was used as control. UDG shRNA vectors (shUDG: NM_003362.2-656s21c1, shUDG-2: NM_003362.2-758s21c1, and shUDG-3: NM_003362.2-893s21c1) were purchased from Sigma, and a scramble targeting shRNA vector (Sigma) was used as paired control. The lentiviral production and infection were performed as previously described. Cells stably infected with LV-THM-p53 were isolated by cell sorting on the basis of their GFP expression.
as §3

O=c1[nH]c(=O)n([C@H]2C[C@H](O)[C@@H](CO)O2)cc1F [5-FdU, 5-fluorodeoxyuridine]
cell survival in shSCR-transfected cells ([1]; HEC1A shSCR, high concentrations): moderate loss of cell viability | effect of UDG depletion on drug sensitivity ([1]; HEC1A shUDG vs shSCR): highly sensitized | expression of cleaved PARP [2]: induced at 48 h | induction of cleaved PARP or activated caspase 3 ([3]; p53 KO cells depleted of UDG, 48 h to 96 h): robustly induced | induction of cleaved PARP or activated caspase 3 ([3]; p53 KO cells expressing UDG, 25 nM 5-FdU 24 h): not detected | time of 5-FdU treatment until appearance of cleaved PARP [4]: > 24 h | time of 5-FdU treatment until appearance of cleaved PARP [5]: > 96 h | cell cycle progression (PI staining) (DLD1 cells; synchronized DLD1 UDG depleted, late G1 and early S phase, lasted 48 h): strong cell cycle arrest | cell cycle progression (PI staining) (DLD1 cells; synchronized DLD1 shSCR, through S phase by 36 h): slowed the progression | cell cycle profile (BrdU and PI co-staining) (DLD1 cells; unsynchronized DLD1 shSCR): S phase arrest especially at middle and late S phase | cell cycle profile (BrdU and PI co-staining) (DLD1 cells; unsynchronized DLD1 shUDG): arrested at late G1 and early S phase | resistance compared with p53 WT cells (HCT116 p53 KO cells; HCT116 p53 KO vs p53 WT): more resistant | effect of UDG depletion on cytotoxicity (HCT116 p53 KO cells; HCT116 p53 KO, shUDG vs shSCR): greatly enhanced cytotoxicity | IC50 (A375): 111 ± 1.8 nM | IC50 (p53 WT cancer lines; read-out: IC50 values, p53 WT cancer lines except A375): < 10 nM | effect of UDG depletion on cytotoxicity (p53 WT cancer lines; shUDG vs shSCR, p53 WT cell lines): did not alter the cytotoxicity
